Measured values as given in patent US11708354B2, “2-benzopyrazinyl-n-heteroaryl-2-phenyl-acetamide compounds” (Hoffmann-La Roche Inc., priority 2016, dated 2023).
Structures can show the parent of a compound that is named as a salt.

System: Phospho-EGFR in H1975 cell line
Assay: HTRF Phospo EGFR Assay (Cellular)
Assay type: cell-based
Conditions: Homo sapiens, NCI-H1975; H1975 cells, 6 hours compound incubation in starving medium, HTRF phospho-EGFR readout
Method: HTRF Phospo EGFR Assay (Cellular)
H1975 cell line was obtained from American Type Culture Collection (Manassas, Va., USA). Cells were maintained at 37° C., 5% CO2 in complete Media RPMI 1640 without phenol red containing 0.3 mg/ml glutamine, 100 IU/ml penicillin, and […] (Gibco) supplemented with 10% fetal bovine serum (FBS) (Gibco). Compounds were diluted into starving medium RPMI 1640 Media without phenol red containing 0.3 mg/ml glutamine, 100 IU/ml penicillin, and […] (Gibco).
Cells were cultured overnight in a 384-well white plate (8000 cells/well) using 8 μl of complete medium/well. Cells were washed two times with 20 μl of starving medium. Media was removed by tapping plates on tissue and subsequently 8 μl of fresh starving medium/well was added. Then 4 μl/well of the 3× compound solution, containing a half-log dilution series of the compound or DMSO in starving medium, were added to the cells. After 6 hours at 37° C., 5% CO2 cells were lysed by adding to the compound mix 4 μl/well of the supplemented lysis buffer, followed by incubation for 30 min at room temperature with shaking. Lysates were stored at −20° C. over night. The following day plates were thawed and 2 μl of anti-Phospho-EGFR Cryptate and 2 μl of anti-Phospho-EGFR-d2 antibody solutions prepared in the detection buffer were added. The plates were then incubated for at least 4 h at room temperature before reading the fluorescence emission at 620 and 665 nm using PHERAstar FX plate reader (BMG Labtech).

Compound | IC50 [nM]
O=C(Nc1nccs1)C(c1cc(F)ccc1O)n1cc2ccccc2n1 (racemic) [Example 6, (2RS)-2-(5-Fluoro-2-hydroxy-phenyl)-2-indazol-2-yl-N-thiazol-2-yl-acetamide] | 57
COc1ccc2cn(C(C(=O)Nc3nccs3)c3ccccc3)nc2c1 (racemic) [Example 4, (2RS)-2-(6-Methoxyindazol-2-yl)-2-phenyl-N-thiazol-2-yl-acetamide] | 537
O=C(Nc1ccccn1)C(c1ccccc1)n1cc2ccc(-c3ccc(N4CCNCC4)nc3)c(F)c2n1 (racemic) [Example 9, (2RS)-2-[7-Fluoro-6-(6-piperazin-1-yl-3-pyridyl)indazol-2-yl]-2-phenyl-N-(2-pyridyl)acetamide] | 127
O=C(Nc1nccs1)C(c1cc(F)ccc1O)n1cc2cccc(N3CCOCC3)c2n1 (racemic) [Example 17, (2RS)-2-(5-Fluoro-2-hydroxy-phenyl)-2-(7-morpholinoindazol-2-yl)-N-thiazol-2-yl-acetamide] | 60
O=C(Nc1nccs1)C(c1ccccc1)n1cc2ccc(O)cc2n1 (racemic) [Example 5, (2RS)-2-(6-Hydroxyindazol-2-yl)-2-phenyl-N-thiazol-2-yl-acetamide] | 199
O=C(Nc1nccs1)C(c1cc(F)ccc1O)n1cc2cccc(-c3ccccc3)c2n1 (racemic) [Example 16, (2RS)-2-(5-Fluoro-2-hydroxy-phenyl)-2-(7-phenylindazol-2-yl)-N-thiazol-2-yl-acetamide] | 55
O=C(Nc1nccs1)C(c1cc(F)ccc1O)n1cc2ccc(Br)cc2n1 (racemic) [Example 18, (2RS)-2-(6-Bromoindazol-2-yl)-2-(5-fluoro-2-hydroxy-phenyl)-N-thiazol-2-yl-acetamide] | 43
Nc1ccc2cn(C(C(=O)Nc3nccs3)c3ccccc3)nc2c1 (racemic) [Example 3, (2RS)-2-(6-Aminoindazol-2-yl)-2-phenyl-N-thiazol-2-yl-acetamide] | 499
O=C(Nc1nccs1)C(c1ccccc1)n1cc2ccccc2n1 (racemic) [Example 2, (2RS)-2-Indazol-2-yl-2-phenyl-N-thiazol-2-yl-acetamide] | 77
O=C(Nc1ccccn1)C(c1ccccc1)n1cc2ccccc2n1 (racemic) [Example 1, (2RS)-2-Indazol-2-yl-2-phenyl-N-(2-pyridyl)acetamide] | 1760
Nc1ccc(C#Cc2ccc3cn(C(C(=O)Nc4nccs4)c4ccccc4)nc3c2F)cn1 (racemic) [Example 11, (2RS)-2-[6-[2-(6-Amino-3-pyridyl)ethynyl]-7-fluoro-indazol-2-yl]-2-phenyl-N-thiazol-2-yl-acetamide] | 52
CCN1CCN(c2ccc(-c3ccc4cn(C(C(=O)Nc5nccs5)c5cccc(F)c5)nc4c3)cn2)CC1 (racemic) [Example 13, (2RS)-2-[6-[6-(4-Ethylpiperazin-1-yl)-3-pyridyl]indazol-2-yl]-2-(3-fluorophenyl)-N-thiazol-2-yl-acetamide] | 144

Compounds with a lower IC50, results first:

IC50 [nM] | Compound
1 | O=C(Nc1nccs1)C(c1cc(F)ccc1O)n1cc2cccc(Br)c2n1 (racemic) [Example 15, (2RS)-2-(7-Bromoindazol-2-yl)-2-(5-fluoro-2-hydroxy-phenyl)-N-thiazol-2-yl-acetamide]
31 | O=C(Nc1nccs1)C(c1ccccc1)n1cc2ccc(-c3ccc(N4CCNCC4)nc3)c(F)c2n1 (racemic) [Example 12, (2RS)-2-[7-Fluoro-6-(6-piperazin-1-yl-3-pyridyl)indazol-2-yl]-2-phenyl-N-thiazol-2-yl-acetamide hydrochloride]
7 | Nc1ccc(C#Cc2ccc3cn(C(C(=O)Nc4ccccn4)c4cc(F)ccc4O)nc3c2F)cn1 (racemic) [Example 7, (2RS)-2-[6-[2-(6-Amino-3-pyridyl)ethynyl]-7-fluoro-indazol-2-yl]-2-(5-fluoro-2-hydroxy-phenyl)-N-(2-pyridyl)acetamide]
33 | O=C(Nc1nccs1)C(c1cc(F)ccc1O)n1cc2ccc(-c3ccccc3)cc2n1 (racemic) [Example 19, (2RS)-2-(5-Fluoro-2-hydroxy-phenyl)-2-(6-phenylindazol-2-yl)-N-thiazol-2-yl-acetamide]
22 | O=C(Nc1nccs1)C(c1cccc(F)c1)n1cc2ccc(C#Cc3cccnc3)cc2n1 (racemic) [Example 14, (2RS)-2-(3-Fluorophenyl)-2-[6-[2-(3-pyridyl)ethynyl]indazol-2-yl]-N-thiazol-2-yl-acetamide]
39 | O=C(Nc1nccs1)C(c1ccccc1)n1cc2ccc(-c3ccc(N4CCNCC4)nc3)cc2n1 (racemic) [Example 20, (2RS)-2-Phenyl-2-[6-(6-piperazin-1-yl-3-pyridyl)indazol-2-yl]-N-thiazol-2-yl-acetamide hydrochloride]
32 | O=C(Nc1nccs1)C(c1ccccc1)n1cc2ccc(-c3ccc(N4CCNCC4)nc3)c(Cl)c2n1 (racemic) [Example 8, (2RS)-2-[7-Chloro-6-(6-piperazin-1-yl-3-pyridyl)indazol-2-yl]-2-phenyl-N-thiazol-2-yl-acetamide]
